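96-well plates; 48 h exposure; 5 concentrations. Endpoints by linear interpolation between flanking doses. Not reached: highest tested concentration assigned. The concentration for 50% growth inhibition is given as GI50.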 Calls of active or inactive are those of the source. Rule as the data show it: active = GI50 up to about 1.1 µM and inactive = higher.
What was measured:
Assay in all cases: inhibition of tumour cell growth, NCI panel, 48 h
UACC-257 = test system: UACC-257
HOP-62 = test system: HOP-62
NCI-H226 = test system: NCI-H226
SK-OV-3 = test system: SK-OV-3
SNB-75 = test system: SNB-75
SF-295 = test system: SF-295
KM12 = test system: KM12
HOP-92 = test system: HOP-92
UO-31 = test system: UO-31
CCRF-CEM = test system: CCRF-CEM
A549 = test system: A549
MDA-MB-435 = test system: MDA-MB-435
ACHN = test system: ACHN
PC-3 = test system: PC-3
OVCAR-5 = test system: OVCAR-5
SR = test system: SR
SF-539 = test system: SF-539
HCC 2998 = test system: HCC 2998
MCF7 = test system: MCF7
T47D = test system: T47D

SMILES	GI50 (UACC-257)	GI50 (HOP-62)	GI50 (NCI-H226)	GI50 (SK-OV-3)	GI50 (SNB-75)	GI50 (SF-295)	GI50 (KM12)	GI50 (HOP-92)	GI50 (UO-31)	GI50 (CCRF-CEM)	GI50 (A549)	GI50 (MDA-MB-435)	GI50 (ACHN)	GI50 (PC-3)	GI50 (OVCAR-5)	GI50 (SR)	GI50 (SF-539)	GI50 (HCC 2998)	GI50 (MCF7)	GI50 (T47D)
Oc1ccc2ccccc2c1/N=N/c1cc(Cl)ccc1Cl	> 50 µM (inactive)	10 µM (inactive)	49 µM (inactive)	10.8 µM (inactive)	11.3 µM (inactive)	9.73 µM (inactive)	17.7 µM (inactive)	22.3 µM (inactive)	21.3 µM (inactive)	17.9 µM (inactive)	17 µM (inactive)	> 50 µM (inactive)	11 µM (inactive)	43.5 µM (inactive)	11.7 µM (inactive)					
CCOc1cccc2nc3cccc(C(=O)NCCN(C)C)c3nc12	1.95 µM (inactive)	0.469 µM (active)	0.506 µM (active)	7.43 µM (inactive)	1.45 µM (inactive)	1.53 µM (inactive)	0.867 µM (active)	1.39 µM (inactive)	2.19 µM (inactive)		0.942 µM (active)		0.372 µM (active)		2.02 µM (inactive)	0.305 µM (active)	1.14 µM (inactive)	0.946 µM (active)		
COc1ccc(Nc2nc3ccc(C(F)(F)F)cc3nc2C(=O)O)cc1OC	30.6 µM (inactive)	25.2 µM (inactive)	36.7 µM (inactive)		35.8 µM (inactive)	24 µM (inactive)	16.9 µM (inactive)		19.2 µM (inactive)			32.7 µM (inactive)	35.2 µM (inactive)	26.5 µM (inactive)	47 µM (inactive)	18.9 µM (inactive)		18.7 µM (inactive)	33.9 µM (inactive)	
COc1ccc(NC(=O)C2C(=O)N(c3ccc(OC)cc3)C(=O)/C2=N\N)cc1 (configuration not stated)	> 100 µM (inactive)	> 100 µM (inactive)				> 100 µM (inactive)	> 100 µM (inactive)	> 100 µM (inactive)	> 100 µM (inactive)	> 100 µM (inactive)	> 100 µM (inactive)		> 100 µM (inactive)		> 100 µM (inactive)	> 100 µM (inactive)	> 100 µM (inactive)	> 100 µM (inactive)		
CSc1ccc(OCC2OC2O)cc1 (configuration not stated)	41.2 µM (inactive)	> 100 µM (inactive)	36.8 µM (inactive)	> 100 µM (inactive)	> 65.6 µM (inactive)	41.1 µM (inactive)	36.2 µM (inactive)	> 58.2 µM (inactive)	51.6 µM (inactive)	21.7 µM (inactive)	42.3 µM (inactive)		40.5 µM (inactive)		> 94.6 µM (inactive)	45.2 µM (inactive)	74.8 µM (inactive)	> 86.3 µM (inactive)		
CCN(CCCOc1ccccc1)CCN(CC)CCCOc1ccccc1	16.2 µM (inactive)	20.4 µM (inactive)	21.8 µM (inactive)		21.8 µM (inactive)	15.6 µM (inactive)	12.2 µM (inactive)		10.2 µM (inactive)	0.71 µM (active)	12.8 µM (inactive)	13 µM (inactive)	16.3 µM (inactive)	2.52 µM (inactive)	17 µM (inactive)	8.26 µM (inactive)	10.7 µM (inactive)	8.69 µM (inactive)	30.8 µM (inactive)	
Cc1c(Cl)cccc1NC(=O)CC1C(=O)Nc2ccccc2S1(=O)=O (configuration not stated)	24 µM (inactive)		16.9 µM (inactive)		17.2 µM (inactive)	19.7 µM (inactive)		15.7 µM (inactive)	17.1 µM (inactive)	16.5 µM (inactive)	18.2 µM (inactive)		16.5 µM (inactive)		20.6 µM (inactive)	10.5 µM (inactive)	14.7 µM (inactive)	16.7 µM (inactive)		
CCOC(=O)c1c(N2CCCC2)ncn(-c2ccccc2)c1=S	> 100 µM (inactive)	> 100 µM (inactive)	> 100 µM (inactive)	> 100 µM (inactive)	> 100 µM (inactive)	> 100 µM (inactive)	> 100 µM (inactive)	> 100 µM (inactive)	> 100 µM (inactive)	> 100 µM (inactive)	> 100 µM (inactive)	> 100 µM (inactive)	> 100 µM (inactive)	> 100 µM (inactive)	> 100 µM (inactive)	> 100 µM (inactive)	> 100 µM (inactive)	> 100 µM (inactive)		> 100 µM (inactive)
CC1CC2OC(=O)C3CC(O)CC(=C23)[C@@]12C[C@@H](c1ccoc1)OC2=O (some centres not stated)	> 100 µM (inactive)		> 100 µM (inactive)	> 100 µM (inactive)	> 100 µM (inactive)	> 100 µM (inactive)	> 100 µM (inactive)	> 100 µM (inactive)	> 100 µM (inactive)	> 100 µM (inactive)	> 100 µM (inactive)		> 100 µM (inactive)		> 100 µM (inactive)	> 100 µM (inactive)	> 100 µM (inactive)	> 100 µM (inactive)		

From ChEMBL document CHEMBL1201862, “PubChem BioAssay data set” (2004)
